Laboratory results: article PMC11362383 (ACS applied materials & interfaces, 2024)
Blank lines part the entries; values can stand above or below the compound they belong to. Residues, ends and D or L forms follow the SMILES beside them. *: point of attachment. StBu = CC(C)(C)S*

What was measured:
[1] = test system: mice; conditions: arginine-rich versus nonarginine peptides; cited from earlier work
[2] = test system: Female Rag2−/− mice; conditions: mouse, in vivo, iv
[3] = test system: Female Rag2−/− mice; test: Assessment of kidney function; assay type: in vivo; conditions: one week after injection, still within the reference range
[4] = test system: Female Rag2−/− mice; test: In vivo toxicity: animal survival after intravenous injection; conditions: i.v.; all of the doses tested (0.0125-0.4 mmol/kg)
[5] = test system: Female Rag2−/− mice; conditions: mouse, in vivo, iv; remark: listed apart in the source

Compound: NCCCC(=O)O [GABA]
survival of mice exposed to the peptide [1]: mice survived

Compound: CC(=O)N[C@@H](CCCNC(=N)N)C(=O)N[C@@H](CCCNC(=N)N)C(=O)N[C@@H](C)C(=O)N[C@@H](C)C(=O)N[C@@H](CC(N)=O)C(=O)N[C@@H](CSSC(C)(C)C)C(=O)N[C@@H](CCCCN)C(=O)O [R2] (Ac-RRAANC(StBu)K-OH)
liver enzyme levels (AST, ALT, ALP) in blood plasma [2]: no significant differences

Compound: CC(=O)N[C@@H](CCCNC(=N)N)C(=O)N[C@@H](CCCNC(=N)N)C(=O)N[C@@H](CCCNC(=N)N)C(=O)N[C@@H](C)C(=O)N[C@@H](C)C(=O)N[C@@H](CC(N)=O)C(=O)N[C@@H](CSSC(C)(C)C)C(=O)N[C@@H](CCCCN)C(=O)O [R3] (Ac-RRRAANC(StBu)K-OH)
creatinine levels in urine ([3]; 0.1 mmol/kg i.v.): observable increase
total protein levels in urine ([3]; 0.1 mmol/kg i.v.): observable increase
liver enzyme levels (AST, ALT, ALP) in blood plasma [2]: no significant differences

Compound: ACSSSPSKHCG [TD]
survival of mice exposed to the peptide [1]: mice survived

Compound: RAANCK [R1]
observable toxicity in animals [4]: did not exhibit any observable toxicity
liver enzyme levels (AST, ALT, ALP) in blood plasma [2]: no significant differences

Compound: RRRRAANCK [R4]
creatinine levels in urine ([3]; 0.5 mmol/kg i.v.): observable increase
total protein levels in urine ([3]; 0.5 mmol/kg i.v.): observable increase
WBC counts [5]: significant increase
platelet counts [5]: significant decrease
AST levels in blood plasma [2]: significant increase

WBC counts [5]: significant increase
platelet counts [5]: significant decrease
ALP levels in blood plasma [2]: increased
Compound: RRRRRAANCK [R5]
ALT levels in blood plasma [2]: increased
AST levels in blood plasma [2]: significant increase

WBC counts [5]: significant increase
Compound: RRRRRRAANCK [R6]
liver enzyme levels (AST, ALT, ALP) in blood plasma [2]: no significant differences
